The results in this text go back to patent US20250276977A1, “TYK2 INHIBITORS AND USES THEREOF” (Alumis Inc., priority 2019, published 2025).

Where only a bound is given, the exact number is not on record here.

The conditions of data set [1]: the molecule shown is the open-chain precursor; cn_pd bond; 15-membered ring; tBuXPhos-Pd-G3/Cs2CO3; 1,4-dioxane; 50.0 mM; 80.0 °C.
Data set [2] deals with T1, human TYK2 (JH2domain-pseudokinase) (Homo sapiens, UniProt P29597).
T1 construct: host or cells: transiently transfected HEK293 cells; unpurified extract
T1 sequence (P29597 556-888): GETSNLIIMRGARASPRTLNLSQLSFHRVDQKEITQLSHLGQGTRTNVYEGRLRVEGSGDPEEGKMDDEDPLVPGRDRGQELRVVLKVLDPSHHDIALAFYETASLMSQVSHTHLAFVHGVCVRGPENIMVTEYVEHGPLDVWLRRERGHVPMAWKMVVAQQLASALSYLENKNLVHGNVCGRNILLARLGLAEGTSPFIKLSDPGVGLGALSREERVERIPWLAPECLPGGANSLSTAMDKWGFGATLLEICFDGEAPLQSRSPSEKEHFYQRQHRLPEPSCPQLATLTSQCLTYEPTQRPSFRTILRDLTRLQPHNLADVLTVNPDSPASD
Briefly: TYK2 JH2 domain binding assay (KINOMEscan). The note with it: duplicate. The protocol:
Binding constants for the compounds described herein against the JH2 domain were determined by the following protocol for a KINOMEscan® assay (DiscoveRx). A fusion protein of a partial length construct of human TYK2 (JH2domain-pseudokinase) (amino acids G556 to D888 based on reference sequence NP_003322.3) and the DNA binding domain of NFkB is expressed in transiently transfected HEK293 cells. From these HEK 293 cells, extracts are prepared in M-PER extraction buffer (Pierce) in the presence of Protease Inhibitor Cocktail Complete (Roche) and Phosphatase Inhibitor Cocktail Set II (Merck) per manufacturers' instructions. The TYK2 (JH2domain-pseudokinase) fusion protein is labeled with a chimeric double-stranded DNA tag containing the NFkB binding site fused to an amplicon for qPCR readout, which is added directly to the expression extract (the final concentration of DNA-tag in the binding reaction is 0.1 nM).
The liganded beads are blocked with excess biotin and washed with blocking buffer (SeaBlock (Pierce), 1% BSA, 0.05% Tween 20, 1 mM DTT) to remove unbound ligand and to reduce nonspecific binding.
Extracts are used directly in binding assays without any enzyme purification steps at a ≥10,000-fold overall stock dilution (final DNA-tagged enzyme concentration <0.1 nM). Extracts are loaded with DNA-tag and diluted into the binding reaction in a two-step process. First extracts are diluted 1:100 in 1× binding buffer (PBS/0.05% Tween 20/10 mM DTT/0.1% BSA/[…] sonicated salmon sperm DNA) containing 10 nM DNA-tag. This dilution is allowed to equilibrate at room temperature for 15 minutes and then subsequently diluted 1:100 in 1× binding buffer. Test compounds were prepared as 111×stocks in 100% DMSO. […] The compounds are then diluted directly into the assays such that the final concentration of DMSO was 0.9%. All reactions are performed in polypropylene 384-well plates. Each was a final volume of 0.02 mL.
Assays are incubated with shaking for 1 hour at room temperature. Then the beads are pelleted and washed with wash buffer (1×PBS, 0.05% Tween 20) to remove displaced kinase and test compound. […] The kinase concentration in the eluates was measured by qPCR. qPCR reactions are assembled by adding […] of kinase eluate to […] of qPCR master mix containing […] amplicon primers and […] amplicon probe. The qPCR protocol consisted of a 10 minute hot start at 95° C., followed by 35 cycles of 95° C. for 15 seconds, 60° C. for 1 minute.
Test compounds are prepared as 111×stocks in 100% DMSO. […] The compounds are then diluted directly into the assays such that the final concentration of DMSO was 0.9%. The Kds are determined using a compound top concentration of 30,000 nM. Kd measurements are performed in duplicate.
Binding constants (Kds) were calculated with a standard dose-response curve using the Hill equation: […]
The Hill Slope was set to −1. Curves were fitted using a non-linear least square fit with the Levenberg-Marquardt algorithm (Levenberg, K., A method for the solution of certain non-linear problems in least squares, Q. Appl. Math. 2, 164-168 (1944)).

In data set [3] the test system is JAK2/TYK2 (IL-12 induced pSTAT4). Nature of the data set: IL-12 induced pSTAT4 in human PBMC. In kind it is cell-based. The note with it: IL-12 10 ng/ml. The protocol:
(§1) Fresh Human PBMCs were resuspended in RPMI 1640 medium with 10% FBS. Cells were seeded in a round bottom 96-well plate at the concentration of 200,000 cells/well. A 10-point dilution series of test compound (top dose 10 uM, 1:5 dilution) was added to the well using the liquid dispenser (Tecan D300e) and incubated for 1 hour at 37 C. Then human IL-12 recombinant protein (R&D Systems) was added to the well at the final concentration of 10 ng/ml and incubated for 15 minutes at 37 C. Cell lysates were prepared and analyzed by Phospho STAT4 (Tyr693) Kit (Meso Scale Discovery) following manufacturer's protocol.
For calculation of the inhibition rate, the relative pSTAT4 signal of each well=pSTAT4 signal of each well−the average pSTAT4 signal of baseline.
The inhibition %=(the average pSTAT4 signal of IL-12 treatment wells—the relative of pSTAT4 signal in each compound containing well)/the average pSTAT4 signal of IL-12 treatment wells*100%
(§2) The curve was plotted as the inhibition % (y-axis) vs. compounds concentration (x-axis) and was fitted with log(inhibitor) vs. normalized response—Variable slope by GraphPad Prism7.0.

For the next data set, the system named is INFα induced pSTAT3. Briefly: INFα induced pSTAT3 in human PBMC. Type of data set: cell-based. As to conditions: INFα 5000 units/ml, read-out: p-STAT3 IC50. The protocol:
as §1, with “INFα” for “IL-12”, “5000 units/ml” for “10 ng/ml”, “STAT3 (Tyr705) cellular kit (Cisbio) or Phospho STAT5” for “STAT4”
(§3) For calculation of the inhibition rate, the relative pSTAT signal of each well=pSTAT signal of each well−the average pSTAT signal of baseline.
(§4) The inhibition %=(the average pSTAT signal of INFα treatment wells—the relative of pSTAT signal in each compound containing well)/the average pSTAT signal of INFα treatment wells * 100%
as §2

Another data set deals with INFα induced pSTAT5. Nature of the data set: INFα induced pSTAT5 in human PBMC. Type of data set: cell-based. As to conditions: Homo sapiens, PBMC, INFα 5000 units/ml, read-out: p-STAT5 IC50. The procedure: as §1, with “INFα” for “IL-12”, “5000 units/ml” for “10 ng/ml”, “STAT3 (Tyr705) cellular kit (Cisbio) or Phospho STAT5” for “STAT4”
as §3, §4, §2

Data set [4] is described as follows: Pharmacokinetic studies in Sprague Dawley rats. Type of data set: in vivo. The note with it: rat, plasma, male Sprague Dawley rats. The procedure: The pharmacokinetics of test compounds were evaluated in male Sprague Dawley rats when administered via oral gavage and IV injection. The test compound was suspended in 0.5% methylcellulose for oral gavage and dissolved in 5% DMSO/5% Solutol/90% saline for IV injection. The animals were fasted overnight before administration. Plasma samples were collected predose and at 0.5, 1, 3, 6, 9, 12, and 24 hours postdose. The samples were analyzed by LC/MS/MS and the concentration of test compound at each timepoint was determined by linear regression. Pharmacokinetic parameters were calculated from the plasma concentrations using Pheonix WinNonlin.

The target in another data set is T2, JAK1 (JH2 domain) (Homo sapiens, UniProt P23458).
T2 construct: inferred from 'similar to the method' for TYK2 JH2; DiscoverX (KINOMEscan)
T2 sequence (P23458 583-855 limits assumed): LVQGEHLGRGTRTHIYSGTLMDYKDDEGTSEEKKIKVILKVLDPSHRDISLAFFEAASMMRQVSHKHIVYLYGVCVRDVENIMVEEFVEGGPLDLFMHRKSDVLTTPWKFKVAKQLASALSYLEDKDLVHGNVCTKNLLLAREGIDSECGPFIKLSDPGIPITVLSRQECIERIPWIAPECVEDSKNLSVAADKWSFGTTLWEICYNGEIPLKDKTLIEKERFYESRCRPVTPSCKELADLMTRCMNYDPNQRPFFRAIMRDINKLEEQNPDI
Briefly: JAK1 JH2 domain binding assay (KINOMEscan).

A further data set deals with T3, JAK2 (JH1 domain) (Homo sapiens, UniProt O60674).
T3 construct: inferred from 'similar to the method' for TYK2 JH2; DiscoverX (KINOMEscan)
T3 sequence (O60674 849-1124 limits assumed): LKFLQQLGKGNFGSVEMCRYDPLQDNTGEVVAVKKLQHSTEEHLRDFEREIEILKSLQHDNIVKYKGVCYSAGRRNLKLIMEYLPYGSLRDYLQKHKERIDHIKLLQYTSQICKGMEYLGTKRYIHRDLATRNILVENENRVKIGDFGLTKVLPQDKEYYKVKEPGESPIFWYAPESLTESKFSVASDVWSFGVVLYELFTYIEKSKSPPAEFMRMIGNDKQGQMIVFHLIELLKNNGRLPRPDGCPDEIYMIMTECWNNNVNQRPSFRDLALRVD
Nature of the data set: JAK2 JH1 domain binding assay (KINOMEscan).

Another data set deals with IL-2-induced pSTAT5. Briefly: IL-2-induced pSTAT5 in human PBMC. In kind it is cell-based. As to conditions: 20 ng/ml of IL-2. The procedure:
(§5) Similar to the method for INFα induced pSTAT5 in human PBMC described above, these assays were performed to check if test compounds have cross-activity to JAK1. JAK2 and JAK3 pathways in human PBMC. The procedure is as described with change of stimuli to 10 ng/ml of GM-CSF or 20 ng/ml of IL-2.

A further data set deals with GM-CSF-induced pSTAT5. Nature of the data set: GM-CSF-induced pSTAT5 in human PBMC. Type of data set: cell-based. As to conditions: 10 ng/ml of GM-CSF. The procedure: as §5

Method for JAK1 (JH2 domain): (§6) Similar to the method for TYK2 JH2 binding described above, JAK1 JH2 and JAK2 JH1 domain binding assay was performed using DiscoverX's KINOMEscan™, but with change of kinase domain. These assays were performed to compare the binding selectivity of test compounds to JAK1 JH2 and JAK2 JH1 domain.
Method for JAK2 (JH1 domain): as §6

`CNC(=O)Oc1cc(Cl)nn2c(C(=O)NC3CC(OCc4ccc(OC)c([N+](=O)[O-])c4)C3)cnc12` (stereo not drawn) yielded a ring closure, isolated yield in data set [1] of 20.2%.

Usually Kd stands for the concentration at which binding is half-saturated. Lower therefore signals tighter binding. By IC50 is commonly meant the concentration that gives 50% inhibition. Consider `CNc1cc2nc3c(cnn13)C(=O)NCCOCc1cnc(OC)c(c1)N2` [Example 1], for which the affinity in data set [2], expressed as Kd, was 0.24 nM. Also, the IC50 in [3] stood at 281 nM; in the data set with INFα induced pSTAT3 it was 87.5 nM.

The molecule `CNc1cc2nc3c(cnn13)C(=O)NCCOCc1ccc(OC)c(c1)N2` [Example 2] came in with a Kd in [2] of 0.14 nM. This molecule also returned an IC50 in data set [3] of 12.2 nM.

`CNc1cc2nc3c(cnn13)C(=O)NCCCOc1ccc(OC)c(c1)N2` [Example 3] returned a Kd in [2] of 0.96 nM. The IC50 amounted to 1150 nM in data set [3] and 1460 nM in the data set on INFα induced pSTAT3.

With `CNc1cc2nn3c(cnc13)C(=O)NCCCOc1ccc(OC)c(c1)N2` [Example 4], the affinity in data set [2], expressed as Kd, was 0.38 nM. The IC50 in data set [3] is 16.1 nM.

Take `CNc1cc2nn3c(cnc13)C(=O)NCCOCc1ccc(OC)c(c1)N2` [Example 6]: in data set [2], binding was characterised by a dissociation constant (Kd) of 0.071 nM. Also, the IC50 in the data set with INFα induced pSTAT5 was found to be 26.2 nM.

The AUC is the area under the concentration-time curve, a measure of exposure. The term clearance denotes a measure of how efficiently the substance is removed, as volume per time. High values mean efficient removal, low ones inefficient removal. In general, half-life refers to the time in which the quantity being followed falls by half. A low value points to rapid decline. The Cmax is the highest concentration seen after dosing. The Tmax is the time from dosing to the highest level. What is called bioavailability is the share of a dose that reaches the circulation, judged against a reference dose that is usually intravenous. A high value points to much systemic uptake. `CNc1cc2nn3c(cnc13)C(=O)NC(C)COCc1ccc(OC)c(c1)N2` (stereo not drawn) [Example 7] gave a Kd in [2] of 0.0071 nM. The half-maximal inhibitory concentration (IC50) in the data set on INFα induced pSTAT5 was determined as 2.3 nM. In data set [4] (iv, I.V. (1 mg/kg)), the AUC is 318 ± 30 ng·h/mL, the C0 is 1230 ± 153 ng/mL, the clearance is 52.4 ± 5.3 mL/min/kg and the half-life was 18 ± 0.96 min. In data set [4] (iv, I.V. (1 mg/kg), read-out: Vdss), the Vd worked out at 0.956 ± 0.1 L/kg. In addition, in data set [4] (Oral (5 mg/kg)), the AUC was 84.9 ± 36 ng·h/mL, the Cmax is 18.2 ± 3.1 ng/mL, the Tmax came to 40 ± 17.4 min and the bioavailability stood at 5.34 ± 2.3%. In data set [4] (Oral (5 mg/kg)), this molecule gave a half-life of 238 ± 66 min.

With `CNc1cc2nc3c(cnn13)C(=O)N[C@H](C)COCc1ccc(C(F)(F)F)c(c1)N2` [Example 10], the Kd in data set [2] turned out to be 0.0023 nM; on JAK1 (JH2 domain), 430 nM; at JAK2 (JH1 domain) it was 7300 nM. Further, the IC50 with INFα induced pSTAT5 is 1.2 nM; with IL-2-induced pSTAT5, more than 10000 nM.

As to `CNc1cc2nn3c(cnc13)C(=O)N[C@H](C)COCc1cc(c(OC)c(F)c1F)N2` [Example 19, (7R,E)-3^4,3^5-difluoro-3^6-methoxy-7-methyl-1^8-(methylamino)-5-oxa-2,8-diaza-1(6,3)-imidazo[1,2-b]pyridazina-3(1,3)-benzenacyclononaphan-9-one], the IC50 in the data set with INFα induced pSTAT5 is 8.7 nM; in the data set with IL-2-induced pSTAT5 it was 38500 nM.

For the molecule `CNc1cc2nn3c(cnc13)C(=O)N[C@H](C)COCc1cc(c3nn(C)cc3c1)N2` [Example 24], the values for the IC50 with INFα induced pSTAT5 and in the data set on IL-2-induced pSTAT5 were 0.5 nM and 9390 nM, respectively.

On to `[2H]C([2H])([2H])NC(=O)c1nnc(NC(=O)C2CC2)cc1Nc1cccc(-c2ncn(C)n2)c1OC` [control, BMS-986165, reference compound], for which the IC50 was determined as 1310 nM in the data set on GM-CSF-induced pSTAT5 and 442 nM in the data set with IL-2-induced pSTAT5.
